From patent US5853731A, “Thromboxane A2 Receptor antagonism and antioxidant action of cinnamophilin and its derivatives, their pharmaceutical compositions and uses” (National Science Council, priority 1997, dated 1998)
Like-named read-outs stand apart in the source and are kept apart here.

Legend:
[1] = system: rabbit platelets; assay: Aggregation of washed rabbit platelet suspension induced by AA, PAF, collagen, U-46619, ADP and thrombin; assay type: cell-based
Method: A. Preparation of aggregation inducing agent
1. Collagen (bovine tendon) in 15 mM aqueous acetic acid was homogenized at 4° C. to form a well dispersed suspension in 1 mg/ml and stocked at -70° C. Before using, it was thawed and well homogenized.
2. PAF was dissolved in CCl4 and stocked at […] Before using, it was diluted with deionized water.
3. […] and sodium arachidonate (AA) were dissolved in deionized water for use.
B. Preparation of platelets
A suspension of platelets was prepared according to the reported method. EDTA (100 mM) and the blood obtained from rabbit's ear vein were mixed in the ratio of 1:4, and immediately centrifuged (120× g) at room temperature for 10 minutes. Platelet-rich plasma was subjected to further centrifuge (500× g) for another 10 minutes. After the plasma was removed, the platelets in the lower layer were suspended in the Tyrode solution containing EDTA (2 mM) and bovine serum albumin (3.5 mg/ml), and subjected to centrifuge (500× g) again for 10 minutes. The platelets obtained were suspended in a Tyrode solution containing no EDTA, and was adjusted to about 4.5×10^8 cells/ml by a cell counter. 1 mM of calcium ion (Ca^2+) was added to the suspension. 30 minutes after the addition, the experiment was conducted. The composition of Tyrode […]: NaCl (136.9), KCl (2.7), NaH2 PO4 (0.4), NaHCO3 (11.9), glucose (11.1).
(§1) C. Platelet aggregation and ATP release reaction test
(§2) The method reported by Born (J. Physiol. 168, 178, 1963) was used to determine the platelet aggregation by a Lumi-aggregometer (Model 1020, Payton, Canada). Platelet suspension (0.4 ml) was added into a small glass tube coated with silicone, and stirred at 900 rpm with a small magnetic stirrer. Unless otherwise specified, the antagonist was added 1 minute before the inducing agent, and all the reactions were carried out at 37° C. The aggregation was calculated by following formula: […]
aggregation (% )=(light absorption before adding inducing agent-light absorption after adding inducing agent)/(light absorption before adding inducing agent-light absorption of Tyrode solution)×100% […]
| Platelets were precincubated with 1a, 1b, 1c, 1e, 2 or DMSO (0.5%, | control) at 37° C. for 3 min, then the inducer was added.

[2] = system: human platelet-rich plasma; assay: Aggregation test of human platelet-rich plasma; assay type: cell-based; details: for IC50: Homo sapiens, Platelet
Method: as §1, §2
aggregation (% )=(light absorption before adding inducing agent-light absorption after adding inducing agent)/(light absorption before adding inducing agent-light absorption of Tyrode solution)×100%
(5 μM), Adrenaline (10 μM),

[3] = Antioxidation (absorbance at 500 nm, FeSCN method)
Excerpt: (Absorbance at 500 nm, using FeSCN method)

[4] = system: cAMP formation; assay: cAMP formation caused by arachidonic acid (AA); assay type: cell-based; details: for cAMP: caused by AA

In the case of COc1cc(CC(C)C(C)C(=O)c2ccc(O)c(OC)c2)ccc1O (stereo not drawn) [Compound 1, cinnamophilin], the “Aggregation (%)” value ([1]; inducer AA (100 μM), conc 5 μM, control 92.1 ± 1.3) is reported as 83.8 ± 4.6%, the “Aggregation (%)” value ([1]; inducer AA (100 μM), conc 10 μM, control 92.1 ± 1.3) is reported as 79.0 ± 6.3% and the “Aggregation (%)” value ([1]; inducer AA (100 μM), conc 20 μM, control 92.1 ± 1.3) is reported as 42.4 ± 3.0%. For the same compound, the “Aggregation (%)” value ([1]; inducer AA (100 μM), conc 50 μM, control 92.1 ± 1.3) was 3.8 ± 3.5%, the “Aggregation (%)” value ([1]; inducer ADP (20 μM), conc 300 μM, control 81.6 ± 3.0) was 75.6 ± 9.2% and the “Aggregation (%)” value ([1]; inducer PAF (2 ng/ml), conc 300 μM, control 91.7 ± 2.0) was 83.5 ± 8.0%. For the same compound, the “Aggregation (%)” value ([1]; inducer U-46619 (1 μM), conc 200 μM, control 89.4 ± 1.2) was 22.1 ± 2.4%, the “Aggregation (%)” value ([1]; inducer collagen (10 μg/ml), conc 50 μM, control 93.6 ± 1.0) was 87.0 ± 1.6% and the “Aggregation (%)” value ([1]; inducer collagen (10 μg/ml), conc 100 μM, control 93.6 ± 1.0) was 44.7 ± 10.0%. For the same compound, the “Aggregation (%)” value ([1]; inducer collagen (10 μg/ml), conc 200 μM, control 93.6 ± 1.0) was 0.0 ± 0.0%, the “Aggregation (%)” value ([1]; inducer thrombin (0.1 U/ml), conc 300 μM, control 94.8 ± 2.0) was 94.6 ± 1.4% and the IC50 ([2]; human platelet-rich plasma, inducer A-23187 5 μM, read-out: IC50, platelet aggregation) was > 30 µM. For the same compound, the IC50 ([2]; human platelet-rich plasma, inducer ADP 5 μM, First Phrase, read-out: IC50, platelet aggregation, first phase) was > 30 µM, the IC50 ([2]; human platelet-rich plasma, inducer ADP 5 μM, Second Phrase, read-out: IC50, platelet aggregation, second phase) was 6 ± 0.6 µM and the IC50 ([2]; human platelet-rich plasma, inducer U-46619 1 μM, read-out: IC50, platelet aggregation) was 3 ± 0.4 µM. For the same compound, the IC50 ([2]; human platelet-rich plasma, inducer adrenaline 10 μM, First Phrase, read-out: IC50, platelet aggregation, first phase) was > 30 µM, the IC50 ([2]; human platelet-rich plasma, inducer adrenaline 10 μM, Second Phrase, read-out: IC50, platelet aggregation, second phase) was 7.6 ± 0.9 µM and the IC50 ([2]; human platelet-rich plasma, inducer arachidonic acid (AA) 800 μM, read-out: IC50, platelet aggregation) was 5 ± 0.4 µM. The IC50 ([2]; human platelet-rich plasma, inducer collagen, read-out: IC50, platelet aggregation) was 5.6 ± 0.6 µM, the “inhibition of U-46619 induced platelet aggregation” value ([2]; U-46619) was “potential inhibition” and the “inhibition of second phase aggregation” value ([2]; human platelet-rich plasma, ADP and adrenaline) was “inhibit second phase aggregation”. For the same compound, the “inhibition of platelet aggregation” value ([2]; induced by AA, ADP, collagen, U-46619, A-23187) was “potentially to inhibit the platelet aggregation”, the “antioxidation capability” value ([3]; 20 μM, compared with α-tocopherol at same concentration) was “lower than α-tocopherol at the same concentration” and the “Absorbance at 500 nm” value ([3]; 20 μM, induce time 0, control 0.047) was 0.045. The “Absorbance at 500 nm” value ([3]; 20 μM, induce time 4, control 0.084) was 0.076, the “Absorbance at 500 nm” value ([3]; 20 μM, induce time 7, control 0.201) was 0.146 and the “Absorbance at 500 nm” value ([3]; 20 μM, induce time 10, control 0.343) was 0.176. The “Absorbance at 500 nm” value ([3]; 20 μM, induce time 16) was 0.346, the “Absorbance at 500 nm” value ([3]; 20 μM, induce time 19) was 0.399 and the “Absorbance at 500 nm” value ([3]; 20 μM, induce time 22) was 0.508. For the same compound, the “Absorbance at 500 nm” value ([3]; 20 μM, induce time 25) was 0.796, the “Absorbance at 500 nm” value ([3]; 20 μM, induce time 28) was 1.301 and the “inhibitory effect on fatty oil peroxidation” value ([3]; 40 μM) was “potential inhibitory effect on fatty oil peroxidation”. The “Absorbance at 500 nm” value ([3]; 40 μM, induce time 0, control 0.047) was 0.037, the “Absorbance at 500 nm” value ([3]; 40 μM, induce time 4, control 0.084) was 0.056 and the “Absorbance at 500 nm” value ([3]; 40 μM, induce time 7, control 0.201) was 0.082. The “Absorbance at 500 nm” value ([3]; 40 μM, induce time 10, control 0.343) was 0.116, the “Absorbance at 500 nm” value ([3]; 40 μM, induce time 16) was 0.156 and the “Absorbance at 500 nm” value ([3]; 40 μM, induce time 19) was 0.204. The “Absorbance at 500 nm” value ([3]; 40 μM, induce time 22) was 0.256, the “Absorbance at 500 nm” value ([3]; 40 μM, induce time 25) was 0.282 and the “Absorbance at 500 nm” value ([3]; 40 μM, induce time 28) was 0.349. For the same compound, the “Absorbance at 500 nm” value ([3]; 40 μM, induce time 31) was 0.405, the “Absorbance at 500 nm” value ([3]; 40 μM, induce time 34) was 0.453 and the “Absorbance at 500 nm” value ([3]; 40 μM, induce time 37) was 0.525. For the same compound, the “Absorbance at 500 nm” value ([3]; 40 μM, induce time 40) was 0.687, the “antioxidation capability versus control” value ([3]; compared with 0.5% DMSO as control) was “potential antioxidation capable comparing to 0.5% DMSO as control” and the “cAMP level” value ([4]; 0.03-10 μM, AA) was “increase PGE2 and cAMP levels”. It also gave a cAMP ([4]; conc 1 μM) of 22 ± 3 pmol/mL, a cAMP ([4]; conc 3 μM) of 29 ± 3 pmol/mL and a cAMP ([4]; conc 10 μM) of 35 ± 2 pmol/mL.
